Results taken from US20240083890A1, “MACROCYCLIC BRANCHED 3-FLUORO-BUT-3-ENAMIDES AS INHIBITORS OF MCL-1” (JANSSEN PHARMACEUTICA NV, priority 2020, published 2024).
pKi: −log10 of the molar value. Where two headings read alike, the source gives them in different places.

Columns and labels:
[1] = test system: MOLP-8 human multiple myeloma cell line; experiment: Caspase-Glo 3/7 apoptosis induction assay in MOLP-8 cells; type: cell-based; details: caspase-3/7 activation, 2 hours incubation at 37° C., averaged over all runs on all batches, read-out: MOLP8 AC50
Excerpt: MCL-1 is a regulator of apoptosis and is highly over-expressed in tumor cells that escape cell death. The assay evaluates the cellular potency of small-molecule compounds targeting regulators of the apoptosis pathway, primarily MCL-1, Bfl-1, Bcl-2, and other proteins of the Bcl-2 family. Protein-protein inhibitors disrupting the interaction of anti-apoptotic regulators with BH3-domain proteins initiate apoptosis.
The Caspase-Glo® 3/7 Assay is a luminescent assay that measures caspase-3 and -7 activities in purified enzyme preparations or cultures of adherent or suspension cells. The assay provides a proluminescent caspase-3/7 substrate, which contains the tetrapeptide sequence DEVD. This substrate is cleaved to release aminoluciferin, a substrate of luciferase used in the production of light. Addition of the single Caspase-Glo® 3/7 Reagent in an “add-mix-measure” format results in cell lysis, followed by caspase cleavage of the substrate and generation of a “glow-type” luminescent signal.
This assay uses the MOLP-8 human multiple myeloma cell line, which is sensitive to MCL-1 inhibition.
Cell cultures were maintained between 0.2 and 2.0×10^6 cells/mL. The cells were harvested by collection in 50 mL conical tubes. The cells were then pelleted at 500 g for 5 mins before removing supernatant and resuspension in fresh pre-warmed culture medium. The cells were counted and diluted as needed.
The assay reagent was prepared by transferring the buffer solution to the substrate vial and mixing. The solution may be stored for up to 1 week at 4° C. with negligible loss of signal.
Compounds were delivered in assay-ready plates (Proxiplate) and stored at −20° C.
Assays always include 1 reference compound plate containing reference compounds. The plates were spotted with 40 nL of compounds (0.5% DMSO final in cells; serial dilution; 30 μM highest conc. 1/3 dilution, 10 doses, duplicates). The compounds were used at room temperature and 4 μL of pre-warmed media was added to all wells except column 2 and 23. The negative control was prepared by adding 1% DMSO in media. The positive control was prepared by adding the appropriate positive control compound in final concentration of 60 μM in media. The plate was prepared by adding 4 μL negative control to column 23, 4 μL positive control to column 2, and 4 μL cell suspension to all wells in the plate. The plate with cells was then incubated at 37° C. for 2 hours. The assay signal reagent is the Caspase-Glo solution described above, and 8 μL was added to all wells. The plates were then sealed and measured after 30 minutes.
The activity of a test compound was calculated as percent change in apoptosis induction as follows: • LC=median of the Low Control values • =Central Reference in Screener • =DMSO • =0% • HC=Median of the High Control values • =Scale Reference in Screener • =30 μM of positive control • =100% apoptosis induction
% Effect (AC50)=100−((sample-LC)/(HC-LC))*100
% Control=(sample/HC)*100
% Control min=((sample-LC)/(HC-LC))*100
Table: Measured AC50 for Representative Compounds of Formula (I). Averaged values are reported over all runs on all batches of a particular compound.

Mcl-1 = Mcl-1 (Homo sapiens (Human), UniProt Q07820); experiment: Terbium labeled Mcl-1 HTRF binding assay, displacement of Cy5-labeled BIM BH3 peptide; details: Ki=IC50/(1+[L]/Kd), [L]=8 nM, Kd=10 nM; 25 pM Tb-Mcl-1, 8 nM Cy5 Bim peptide, 60 min; read-out: Tb-MCL1 Ki
Protocol: Terbium labeled Myeloid Cell Leukemia 1(Mcl-1) homogeneous time-resolved fluorescence (HTRF) binding assay utilizing the BIM BH3 peptide (H2N—(C/Cy5Mal) WIAQELRRIGDEFN-OH) as the binding partner for Mcl-1.
This assay evaluated inhibition of the BH3 domain: Mcl-1 interaction by measuring the displacement of Cy5-labeled BIM BH3 peptide (H2N—(C/Cy5Mal) WIAQELRRIGDEFN-OH) in the HTRF assay format.
The following assay and stock buffers were prepared for use in the assay: (a) Stock buffer: 10 mM Tris-HCl, pH=7.5+150 mM NaCl, filtered, sterilized, and stored at 4° C.; and (b) 1× assay buffer, where the following ingredients were added fresh to stock buffer: 2 mM dithiothreitol (DTT), 0.0025% Tween-20, 0.1 mg/mL bovine serum albumin (BSA). The 1× Tb-Mcl-1+Cy5 Bim peptide solution was prepared by diluting the protein stock solution using the 1× assay buffer (b) to 25 pM Tb-Mcl-1 and 8 nM Cy5 Bim peptide.
Using the Acoustic ECHO, 100 nL of 100× test compound(s) were dispensed into individual wells of a white 384-well Perkin Elmer Proxiplate, for a final compound concentration of 1× and final DMSO concentration of 1%. Inhibitor control and neutral control (NC, 100 nL of 100% DMSO) were stamped into columns 23 and 24 of assay plate. Into each well of the plate was then dispensed 10 μL of the 1× Tb-Mcl-1+Cy5 Bim peptide solution. The plate was centrifuged with a cover plate at 1000 rpm for 1 minute, then incubated for 60 minutes at room temperature with plates covered.
The TR-FRET signal was read on an BMG PHERAStar FSX MicroPlate Reader at room temperature using the HTRF optic module (HTRF: excitation: 337 nm, light source: laser, emission A: 665 nm, emission B: 620 nm, integration start: 60 μs, integration time: […]).
The BMG PHERAStar FSX MicroPlate Reader was used to measure fluorescence intensity at two emission wavelengths—665 nm and 620 nm—and report relative fluorescence units (RFU) for both emissions, as well as a ratio of the emissions (665 nm/620 nm)*10,000. The RFU values were normalized to percent inhibition as follows:
% inhibition (((NC−IC)−(compound-IC))/(NC−IC))*100
where IC (inhibitor control, low signal)=mean signal of 1× Tb-MCl-1+Cy5 Bim peptide+inhibitor control or 100% inhibition of Mel-1; NC (neutral control, high signal)=mean signal 1× Tb-MCI-1+Cy5 Bim peptide with DMSO only or 0% inhibition
An 11-point dose response curve was generated to determine IC50 values (using GenData) based on the following equation:
Y=Bottom+(Top-Bottom)/(1+10^((log IC50−X)*HillSlope))
where Y=% inhibition in the presence of X inhibitor concentration; Top=100% inhibition derived from the IC (mean signal of Mcl-1+inhibitor control); Bottom=0% inhibition derived from the NC (mean signal of Mcl-1+DMSO); Hillslope=Hill coefficient; and IC50=concentration of compound with 50% inhibition in relation to top/neutral control (NC).
In this assay [L]=8 nM and Kd=10 nM
Representative compounds of the present invention were tested according to the procedure as described above, with results as listed in the Table below (n.d. means not determined).

Mcl-1, sequence (Q07820 whole entry): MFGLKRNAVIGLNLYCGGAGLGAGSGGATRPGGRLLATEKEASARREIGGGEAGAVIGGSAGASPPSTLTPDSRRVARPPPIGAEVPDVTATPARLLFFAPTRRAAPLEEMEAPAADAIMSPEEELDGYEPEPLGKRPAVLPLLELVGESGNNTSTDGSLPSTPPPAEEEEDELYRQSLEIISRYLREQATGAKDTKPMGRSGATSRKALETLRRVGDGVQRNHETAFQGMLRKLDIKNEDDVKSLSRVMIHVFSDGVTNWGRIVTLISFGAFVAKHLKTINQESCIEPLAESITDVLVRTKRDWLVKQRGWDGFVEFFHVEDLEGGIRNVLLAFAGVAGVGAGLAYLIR

SMILES | AC50 [1] [nM] | pKi (Mcl-1) | AC50 ([1]; Homo sapiens, MOLP-8) [nM]
C[C@H](O)[C@@H]1/C(F)=C/C[C@H](C)[C@@H](C)S(=O)(=O)NC(=O)c2ccc3c(c2)N(C[C@@H]2CCCN21)C[C@@]1(CCOc2cc(Cl)ccc21)CO3 [Compound 18] | 3420 | 9.22 | –
C[C@@H]1[C@@H](C)C/C=C(\F)[C@H]([C@@H](O)Cn2cccn2)N2CC[C@H]2CN2C[C@@]3(CCCc4cc(Cl)ccc43)COc3ccc(cc32)C(=O)NS1(=O)=O [Compound 19] | – | 10.31 | 126
C[C@@H]1[C@@H](C)C/C=C(\F)[C@H]([C@@H](O)COC2CCOCC2)N2CCC[C@H]2CN2C[C@@]3(CCCc4cc(Cl)ccc43)COc3ccc(cc32)C(=O)NS1(=O)=O [Compound 20] | – | 10.28 | 272
C[C@@H]1[C@@H](C)C/C=C(\F)[C@H]([C@@H](O)CN2CCOCC2)N2CC[C@H]2CN2C[C@@]3(CCCc4cc(Cl)ccc43)COc3ccc(cc32)C(=O)NS1(=O)=O [Compound 21] | – | 10.29 | 87.9
C[C@@H]1[C@@H](C)C/C=C(\F)[C@H]([C@@H](O)CN2CCOCC2)N2CCC[C@H]2CN2C[C@@]3(CCCc4cc(Cl)ccc43)COc3ccc(cc32)C(=O)NS1(=O)=O [Compound 22] | – | 10.10 | 239
COCCN(CCOC)C[C@H](O)[C@H]1/C(F)=C/C[C@H](C)[C@@H](C)S(=O)(=O)NC(=O)c2ccc3c(c2)N(C[C@@H]2CCN21)C[C@@]1(CCCc2cc(Cl)ccc21)CO3 [Compound 23] | – | 10.64 | 69.6
COCC(COC)OC[C@H](O)[C@H]1/C(F)=C/C[C@H](C)[C@@H](C)S(=O)(=O)NC(=O)c2ccc3c(c2)N(C[C@@H]2CCN21)C[C@@]1(CCCc2cc(Cl)ccc21)CO3 [Compound 24] | – | 10.44 | 46.3
COCCN(CC1CCOCC1)C[C@H](O)[C@H]1/C(F)=C/C[C@H](C)[C@@H](C)S(=O)(=O)NC(=O)c2ccc3c(c2)N(C[C@@H]2CCN21)C[C@@]1(CCCc2cc(Cl)ccc21)CO3 [Compound 25] | – | 10.60 | 36.6
COCCCN(CCOC)C[C@H](O)[C@H]1/C(F)=C/C[C@H](C)[C@@H](C)S(=O)(=O)NC(=O)c2ccc3c(c2)N(C[C@@H]2CCN21)C[C@@]1(CCCc2cc(Cl)ccc21)CO3 [Compound 26] | – | 10.36 | 123
C[C@@H]1[C@@H](C)C/C=C(\F)[C@H]([C@@H](O)CN(C)CCC2CCOCC2)N2CC[C@H]2CN2C[C@@]3(CCCc4cc(Cl)ccc43)COc3ccc(cc32)C(=O)NS1(=O)=O [Compound 27] | – | 10.28 | 746
C[C@@H]1[C@@H](C)C/C=C(\F)[C@H]([C@@H](O)CN(C)CC2CCOCC2)N2CC[C@H]2CN2C[C@@]3(CCCc4cc(Cl)ccc43)COc3ccc(cc32)C(=O)NS1(=O)=O [Compound 28] | – | 10.43 | 211
COCCN(C)C[C@H](O)[C@H]1/C(F)=C/C[C@H](C)[C@@H](C)S(=O)(=O)NC(=O)c2ccc3c(c2)N(C[C@@H]2CCN21)C[C@@]1(CCCc2cc(Cl)ccc21)CO3 [Compound 29] | – | 10.36 | 385
COCCOCCN(C)C[C@H](O)[C@H]1/C(F)=C/C[C@H](C)[C@@H](C)S(=O)(=O)NC(=O)c2ccc3c(c2)N(C[C@@H]2CCN21)C[C@@]1(CCCc2cc(Cl)ccc21)CO3 [Compound 30] | – | 10.44 | 944
C[C@@H]1[C@@H](C)C/C=C(\F)[C@H]([C@@H](O)CN(C)C)N2CC[C@H]2CN2C[C@@]3(CCCc4cc(Cl)ccc43)COc3ccc(cc32)C(=O)NS1(=O)=O [Compound 31] | – | 10.39 | 1020
CO[C@H](C)[C@H]1/C(F)=C/C[C@H](C)[C@@H](C)S(=O)(=O)NC(=O)c2ccc3c(c2)N(C[C@@H]2CCCN21)C[C@@]1(CCOc2cc(Cl)ccc21)CO3 [Compound 32] | – | 8.71 | 3710
